Results on two compounds are retold here after US20240307350A1, “5-METHOXY-N,N-DIMETHYLTRYPTAMINE (5-MEO-DMT) FOR TREATING DEPRESSION” (GH RESEARCH IRELAND LIMITED, priority 2019, published 2024).

Data set [1] has as its system patients with personality trait disturbance or anxiety. As to conditions: LSD as an aid to psychotherapy; cited from earlier work.
The test system of data set [2] is patients with alcohol dependence. The settings on record: therapy with LSD; cited from earlier work.
Data set [3] can be described thus: Clinical trial in healthy volunteers: 5-MeO-DMT and bufotenine plasma levels. It is filed as in vivo, human. The settings on record: all other samples (1 hour and 3 hours) after inhaled 5-MeO-DMT. Here is the method:
A clinical trial was performed in which 5-MeO-DMT free base (purity not less than 99%) at different dose levels was administered via inhalation (as described in Example 1) in a single day to healthy volunteers who had prior experiences with the use of synthetic or naturally-occurring psychedelics. The trial was reviewed and approved by the relevant national competent authority and local medical ethics committee. The trial consisted of two parts: Part A, where single doses of 5-MeO-DMT dosage amounts of 2 mg, 6 mg, 12 mg and 18 mg were administered; and Part B, where an initial 5-MeO-DMT dosage amount of 6 mg was administered, and then, unless the participant had already experienced a peak psychedelic experience based on the PPEQ or the supervising physician had decided that further dose increases were inappropriate based on observed side effects, further subsequent dosage amounts of 12 mg and 18 mg were administered with about 3 hours in between each administration. Participants in Part A only received one dose and were not allowed to receive higher doses in later parts of Part A and were not allowed to participate in Part B. Participants were closely monitored for 3.5 hours after the last dose, with additional follow-up visits 1 day and 7 days after dosing. Various safety related measures (e.g., adverse event reporting, safety laboratory analyses, vital signs, ECG, CADSS, PVT, DSST, Prospective Memory Task (PMT)) as well as measures of the intensity of the psychedelic effects (MEQ30, ASC, PPEQ, subjective description of the psychedelic experience) were recorded. Pharmacokinetic analysis of 5-MeO-DMT and bufotenine plasma levels was performed at 1 hour and 3 hours after drug administration in Part A, and at 3 hours after drug administration in Part B.

The next data set deals with 5-HT2A receptor (Homo sapiens, UniProt P28223). As to conditions: compared with 5-MeO-DMT; cited from earlier work.
5-HT2A receptor, sequence (P28223 whole entry): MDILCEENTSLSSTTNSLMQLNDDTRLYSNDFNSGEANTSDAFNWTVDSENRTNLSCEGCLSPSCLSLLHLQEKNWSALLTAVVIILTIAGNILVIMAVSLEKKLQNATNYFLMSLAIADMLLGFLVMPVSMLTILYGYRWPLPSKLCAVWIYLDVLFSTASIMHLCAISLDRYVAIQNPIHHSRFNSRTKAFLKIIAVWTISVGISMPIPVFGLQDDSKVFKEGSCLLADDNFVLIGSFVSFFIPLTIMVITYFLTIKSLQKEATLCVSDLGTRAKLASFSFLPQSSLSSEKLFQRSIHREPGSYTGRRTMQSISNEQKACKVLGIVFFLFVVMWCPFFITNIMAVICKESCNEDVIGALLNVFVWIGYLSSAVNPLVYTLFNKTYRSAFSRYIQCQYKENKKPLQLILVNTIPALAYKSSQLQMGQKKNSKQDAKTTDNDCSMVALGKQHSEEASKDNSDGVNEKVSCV

Structures are written as SMILES.

Regarding `CCN(CC)C(=O)[C@@H]1C=C2c3cccc4[nH]cc(c34)C[C@H]2N(C)C1` [LSD, lysergic acid diethylamide], the “patients with an outcome of "much improved" or "improved"” value in data set [1] is “over 90%”. Moreover, the “patients changed (stop drinking or are much improved)” value in data set [2] is 50%.
As for `CN(C)CCc1c[nH]c2ccc(O)cc12` [bufotenine], in data set [3], the “plasma levels of the 5-MeO-DMT metabolite bufotenine” value is on record as “undetectable”. Besides, at 5-HT2A receptor, the “affinity for the 5-HT2A receptor” value is “much higher affinity than 5-MeO-DMT”.
